The record followed here is patent US5374655A, “Methods for the synthesis of monofucosylated oligosaccharides terminating in di-N-acetyllactosaminyl structures” (Alberta Research Council, priority 1992, dated 1994).

The subject of one assay is ELAM-1. Put plainly: ELAM-1 dependent cell adhesion to activated vascular endothelium (U937 or HL60 binding to TNFα-stimulated HUVECs). It is filed as cell-based, human. The note with it: HUVECs stimulated with TNFα (10 ng/ml); U937 or HL60 cells. As for the experimental part: This example examines whether hexasaccharide 5a could inhibit ELAM-1 dependent cell adhesion to activated vascular endothelium. Specifically, an vitro cell binding assay was preformed as described by Lowe et al^33. Briefly, human umbilical vein endothelial cells (HUVECs purchased from Cell Systems, Seattle, Wash., USA) were stimulated with TNFα (10 ng/ml) to express ELAM-1.

Assay [1] relates to Balb/c mice. Nature of the assay: Persistence of suppression of the DTH inflammatory response, rechallenge 11 weeks after primary immunization. It is filed as in vivo, mouse. The note with it: rechallenge with L111 S-Layer protein 11 weeks after primary immunization. As to the method: (§1) DTH inflammatory responses were measured using the mouse footpad swelling assay as described by Smith and Ziola^31. […] Seven days later, each group of mice was footpad-challenged with 10 μg of L-111 S-Layer protein. The resulting inflammatory footpad swelling was measured with a Mitutoyo Engineering micrometer 24 hours after challenge.
i. The identical groups of mice treated with hexasaccharide glycoside 5a in Example 7 were rechallenged with L111 S-Layer protein 11 weeks after primary immunization.

Assay [2] has as its system Balb/c mice. Put plainly: Mouse footpad swelling assay, DTH inflammatory response to L111 S-Layer protein. The format is in vivo. Also on record: INCREASE IN FOOTPAD SWELLING: unit not given here. As to the method: as §1
To assess the effect of hexasaccharide glycoside 5a on the inflammatory DTH response, groups of mice received 100 μg of this compound, injected into the tail vein, 5 hours after challenge. Control groups received 100 μL of phosphate-buffered saline (PBS).

Assay [3] relates to α(13/4)fucosyltransferase. Put plainly: Fucosyltransferase assay: relative rates of fucose transfer onto the 3-hydroxy of GlcNAc in βGal(1-4)βGlcNAc-OR. It is filed as biochemical, human. The note with it: fucosylation of disaccharide glycosides βGal(1-4)βGlcNAc-OR with different substituents at the 6-position of galactose. As to the method: The βGlcNAc α(13/4)fucosyltranferase was purified from human milk, as reported.^4 The enzymatic reactions were carried out at 37° C. in a plastic tube using a sodium cacodylate buffer (100 mM, pH 6.5), MnCl2 (10 mM), ATP (1.6 mM), NaN3 (1.6 mM). The reaction products were isolated and purified as indicated above.
Experiments were conducted to determine the relative rates of transfer of fucosylation onto the 3-hydroxy of the GlcNAc in disaccharide glycosides βGal(1-4)βGlcNAc-OR having different substituents at the 6-position of the galactose. Fucosyltransferase assays were conducted with α(13/4)fucosyltransferase in a manner similar to that described in the art^4 and gave the following results: […]

Consider `COC(=O)CCCCCCCCO[C@@H]1O[C@H](CO)[C@@H](O[C@@H]2O[C@H](CO)[C@H](O)[C@H](O[C@@H]3O[C@H](CO)[C@@H](O[C@@H]4O[C@H](CO)[C@H](O)[C@H](O[C@]5(C(=O)O)C[C@H](O)[C@@H](NC(C)=O)[C@H]([C@H](O)[C@H](O)CO)O5)[C@H]4O)[C@H](O)[C@H]3NC(C)=O)[C@H]2O)[C@H](O[C@@H]2O[C@@H](C)[C@@H](O)[C@@H](O)[C@@H]2O)[C@H]1NC(C)=O` [hexasaccharide glycoside 5a, 8-Methoxycarbonyloctyl (5-Acetamido-3,5-dideoxy-α-D-glycero-D-galacto-2-nonulopyranosylonicacid)-(2-3)--O--β-D-galactopyranosyl-(1-4)--O-- 2-acetamido-2-deoxy-β-D-glucopyranosyl-(1-3)--O--β-D-galactopyranosyl-(1-4)--O--[α-L-fucopyranosyl-(1-3)--O--]2-acetamido-2-deoxy-β-D-glucopyranoside], for which the “inhibition of ELAM-1 dependent binding to the HUVECs” value in the assay with ELAM-1 is recorded as “inhibits ELAM-1 dependent binding to the HUVECs”. Besides, the “footpad swelling relative to that exhibited in mice treated with PBS” value in the assay on Balb/c mice [1] is “about 60%”. Also, the “reduction in footpad swelling” value in the assay with Balb/c mice [1] (versus PBS control) was “about 40%”. In addition, the “INCREASE IN FOOTPAD SWELLING” value with Balb/c mice [2] (100 μg injected into the tail vein 5 hours after challenge, swelling measured 24 hours after challenge) is recorded as 1.5. Further, the “footpad swelling as compared to the control mice” value with Balb/c mice [2] (100 μg into the tail vein 5 hours after challenge, 24 hours after challenge) is on record as “less than 50%”.

With `COC(=O)CCOCCO[C@@H]1O[C@H](CO)[C@@H](O[C@@H]2O[C@H](C)[C@H](O)[C@H](O)[C@H]2O)[C@H](O)[C@H]1NC(C)=O` [H], the “Relative Rate of Transfer” value in assay [3] is reported as 9.

As for `COC(=O)CCCCCCCCO[C@@H]1O[C@H](CO)[C@@H](O[C@@H]2O[C@H](CO)[C@H](O)[C@H](O)[C@H]2O)[C@H](O)[C@H]1NC(C)=O` [--OH], in assay [3], the “Relative Rate of Transfer” value is given as 100.
